Earlier results on four compounds are cited in article PMC3341490 (Nuclear Medicine and Biology, 2012).

The conditions of data set [1]: copper complex; ref [24].
In data set [2] the test system is GRPR-expressing, PC-3 xenografted tumors in SCID mice.

Consider `O=C(O)CN1CCN(CC(=O)O)CCN(CC(=O)O)CC1` [NOTA, 1,4,7-triazacyclononane-1,4,7-triacetic acid], for which the “stability constant (log K)” value in data set [1] is 21.6.

^64Cu-NO2A-Aoc-BN(7-14): in data set [2] (1 hour, ref [18]-[19]), the PC-3 tumor uptake was 3.59 % ID/g. For the same compound, the “retention of radioactivity in the tumor, relative to 1 h” value in data set [2] (24 h vs 1 h, ref [19]) is recorded as 28%.

With `O=C(O)CN1CCCN(CC(=O)O)CCN(CC(=O)O)CCCN(CC(=O)O)CC1` [TETA], in data set [1], the “stability constant (log K)” value was 21.7.

As to `O=C(O)CN1CCN(CC(=O)O)CCN(CC(=O)O)CCN(CC(=O)O)CC1` [DOTA, 1,4,7,10-tetraazacyclododecane-1,4,7,10-tetraacetic acid], in data set [1], the “stability constant (log K)” value is on record as 22.3.
